The text below walks through data of patent US9073864B2, “Aromatic ring compound” (TAKEDA PHARMACEUTICAL COMPANY LIMITED, priority 2012, dated 2015).

SMILES strings stand for the structures.

T1 sequence (P47871 26-477): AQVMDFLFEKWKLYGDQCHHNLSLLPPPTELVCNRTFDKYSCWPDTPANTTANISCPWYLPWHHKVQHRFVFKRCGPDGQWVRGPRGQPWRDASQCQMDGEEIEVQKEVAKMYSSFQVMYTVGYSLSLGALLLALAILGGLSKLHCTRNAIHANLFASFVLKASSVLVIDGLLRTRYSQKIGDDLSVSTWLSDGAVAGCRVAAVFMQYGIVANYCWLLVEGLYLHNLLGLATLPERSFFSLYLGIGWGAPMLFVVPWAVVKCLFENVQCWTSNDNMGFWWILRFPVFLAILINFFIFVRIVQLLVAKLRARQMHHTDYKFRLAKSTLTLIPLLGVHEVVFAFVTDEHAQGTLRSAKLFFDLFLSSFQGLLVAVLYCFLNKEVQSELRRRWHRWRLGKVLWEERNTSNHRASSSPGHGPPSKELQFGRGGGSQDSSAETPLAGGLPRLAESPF

This assay has as its target T1, human type glucagon receptor (Homo sapiens, UniProt P47871).
T1 construct: an about 1.4 kb DNA fragment containing glucagon receptor gene was recovered from the gel; expressed in transfected cells; host or cells: FreeStyle CHO cells (transient expression); membrane fraction prepared by homogenisation and ultracentrifugation
Description: Measurement of glucagon binding inhibitory activity ([125I]-glucagon, receptor membrane protein). To be noted: test compound 10 μM; 0.4% DMSO alone = 0%, unlabeled glucagon 1 μM = 100%; read-out: inhibitory rate (%) at 10 μM. As to the method: The glucagon binding inhibitory action of the compound of the present invention was evaluated by the following method.
(1) Cloning of Human Glucagon Receptor Gene
Human glucagon receptor gene was cloned by PCR reaction using human pancreas Marathon-ready cDNA (Clontech Laboratories, Inc.) as a template and the following primer set.
The PCR reaction was performed using Advantage 2 polymerase (Clontech Laboratories, Inc.) and according to the attached protocol. The obtained PCR product was subjected to agarose gel (1%) electrophoresis, an about 1.4 kb DNA fragment containing glucagon receptor gene was recovered from the gel, and digested with restriction enzymes EcoRI and NotI. The restriction enzyme-treated DNA was subjected to agarose gel (1%) electrophoresis, an about 1.4 kb DNA fragment was recovered and ligated with plasmid pMSRaneo digested with restriction enzymes EcoRI and NotI to give human type glucagon receptor expression plasmid DNA “pMSRaneo/hGCGR”. The base sequence of the inserted fragment was confirmed to be identical with the object sequence.
(2) Preparation of Glucagon Receptor Membrane Protein
Human type glucagon receptor was expressed using FreeStyle CHO Expression System (Invitrogen™). According to the manual attached to the FreeStyle CHO Expression System, and using the human type glucagon receptor expression plasmid DNA “pMSRaneo/hGCGR” produced in the above-mentioned (1), transient expression was performed by FreeStyle CHO cells. The above-mentioned DNA was transfected, and shaking culture was performed at 37° C., 8% CO2, 125 rpm for 2 days. The culture medium was centrifuged at 2,000 rpm for 10 min and the cells were recovered. The recovered cells were washed with PBS, suspended in homogenate buffer [10 mM NaHCO3 (pH 7.4), 1 mM EDTA, complete EDTA-free (Roche, Ltd., 1 tablet/50 ml)], and the cells were disrupted by a Polytron cell disruption apparatus (Kinematica AG). The disruption solution was centrifuged at 2,000 rpm for 10 min, and the supernatant was recovered. The supernatant was centrifuged at 35,000 rpm for 60 min, and the precipitate was suspended in a buffer [20 mM Tris-HCl (pH 7.4), 5 mM EDTA, complete EDTA-free (Roche, Ltd., 1 tablet/50 ml)] to give a glucagon receptor membrane protein.
(3) Measurement of Glucagon Binding Inhibitory Activity
The reaction was started by adding 50 μl of a glucagon receptor membrane protein solution diluted with a reaction buffer [50 mM HEPES (pH 7.4), 5 mM EGTA, 5 mM magnesium chloride, 0.1% BSA, 0.005% Tween20] to 100 μg/ml, 25 μl of a test compound solution containing 0.4% DMSO, which solution was prepared with the reaction buffer to a compound concentration of 40 μM, and 25 μl of radiolabeled glucagon ([^125I]-Receptor Grade Glucagon; Perkin Elmer Inc.) diluted with the reaction buffer to 200 pM to each well of a 96 well plate (Corning Incorporated). The plate was stood at room temperature for 90 min, then the reaction solution was transferred from the reaction plate onto a 96 well unifilter GF/C plate (Perkin Elmer Inc.) by a cell harvester (Perkin Elmer Inc.), and suctioned to collect a membrane fraction on the filter. The filter was immersed in a 0.3% polyethyleneimine solution in advance to prevent non-specific adsorption of the labeled ligand. The filter was washed 4 times with the reaction buffer, and dried at 42° C. for 2 hr. To each well was added 25 μl of scintillator (MicroScint0; Perkin Elmer Inc.), and the amount of fluorescence was measured by a microplate scintillation counter (TopCount NXT™; Perkin Elmer Inc.).
The inhibitory rate (%) of the well added with the test compound (10 μM; containing 0.4% DMSO solution) was calculated wherein the reaction rate of the well added with 0.4% DMSO alone was 0% inhibitory rate and that of the well added with unlabeled glucagon (final concentration 1 μM) was 100% inhibitory rate.
As for `Cc1cc(-c2ccc(C(F)(F)F)nc2)ccc1C(CCC(F)(F)F)Nc1ccc(C(=O)N2CCC[C@@H](C(=O)O)C2)cc1` (mixture of isomers) [Example 9, (3R)-1-(4-((4,4,4-trifluoro-1-(2-methyl-4-(6-(trifluoromethyl)pyridin-3-yl)phenyl)butyl)amino)benzoyl)piperidine-3-carboxylic acid], the inhibition at 10 µM is 90%. As for `Cc1cc(-c2ccc(C(F)(F)F)cn2)ccc1C(CCC(F)(F)F)Nc1ccc(C(=O)N2CCC[C@@H](C(=O)O)C2)cc1` (mixture of isomers) [Example 10, (3R)-1-(4-((4,4,4-trifluoro-1-(2-methyl-4-(5-(trifluoromethyl)pyridin-2-yl)phenyl)butyl)amino)benzoyl)piperidine-3-carboxylic acid], the figure is 88%; as for `Cc1cc(-c2ncc(C(F)(F)F)cn2)ccc1C(CCC(F)(F)F)Nc1ccc(C(=O)N2CCC[C@@H](C(=O)O)C2)cc1` (mixture of isomers) [Example 11, (3R)-1-(4-((4,4,4-trifluoro-1-(2-methyl-4-(5-(trifluoromethyl)pyrimidin-2-yl)phenyl)butyl)amino)benzoyl)piperidine-3-carboxylic acid], 93%.

For the compound `Cc1cc(-c2ncc(Cl)cn2)ccc1C(CCC(F)(F)F)Nc1ccc(C(=O)N2CCC[C@@H](C(=O)O)C2)cc1` (mixture of isomers) [Example 12, (3R)-1-(4-((1-(4-(5-chloropyrimidin-2-yl)-2-methylphenyl)-4,4,4-trifluorobutyl)amino)benzoyl)piperidine-3-carboxylic acid], the inhibition at 10 µM came to 96%.

`CCc1cnc(-c2ccc(C(CCC(F)(F)F)Nc3ccc(C(=O)N4CCC[C@@H](C(=O)O)C4)cc3)c(C)c2)nc1` (mixture of isomers) [Example 13, (3R)-1-(4-((1-(4-(5-ethylpyrimidin-2-yl)-2-methylphenyl)-4,4,4-trifluorobutyl)amino)benzoyl)piperidine-3-carboxylic acid]: the inhibition at 10 µM is 84%. Regarding `Cc1cc(-n2ccc(C(C)C)n2)ccc1C(CCC(F)(F)F)Nc1ccc(C(=O)N2CCC[C@@H](C(=O)O)C2)cc1` (mixture of isomers) [Example 19, (3R)-1-(4-((4,4,4-trifluoro-1-(4-(3-isopropyl-1H-pyrazol-1-yl)-2-methylphenyl)butyl)amino)benzoyl)piperidine-3-carboxylic acid], the inhibition at 10 µM worked out at 87%.

In the case of `Cc1cc(-n2cc3c(n2)CCCC3)ccc1C(CCC(F)(F)F)Nc1ccc(C(=O)N2CCC[C@@H](C(=O)O)C2)cc1` (mixture of isomers) [Example 20, (3R)-1-(4-((4,4,4-trifluoro-1-(2-methyl-4-(4,5,6,7-tetrahydro-2H-indazol-2-yl)phenyl)butyl)amino)benzoyl)piperidine-3-carboxylic acid], the inhibition at 10 µM was 93%. Regarding `Cc1cc(-n2cc3c(n2)CCCC3)ccc1C(Nc1ccc(C(=O)N2CCC[C@@H](C(=O)O)C2)cc1)C(C)C` (mixture of isomers) [Example 116, (3R)-1-(4-((2-methyl-1-(2-methyl-4-(4,5,6,7-tetrahydro-2H-indazol-2-yl)phenyl)propyl)amino)benzoyl)piperidine-3-carboxylic acid], the inhibition at 10 µM came to 90%. With `Cc1cc(-c2ccc(F)cc2)ccc1C(CCC(F)(F)F)Nc1ccc(C(=O)N2CCC[C@@H](C(=O)O)C2)cc1` (stereo partly drawn) [Example 5, (3R)-1-(4-((4,4,4-trifluoro-1-(4′-fluoro-3-methylbiphenyl-4-yl)butyl)amino)benzoyl)piperidine-3-carboxylic acid], the inhibition at 10 µM amounted to 86%. As to `Cc1cc(-c2ccc(F)cc2)ccc1C(CCC(F)(F)F)Nc1ccc(C(=O)N2CCC[C@@H](C(=O)O)C2)cn1` (stereo partly drawn) [Example 6, (3R)-1-((6-((4,4,4-trifluoro-1-(4′-fluoro-3-methylbiphenyl-4-yl)butyl)amino)pyridin-3-yl)carbonyl)piperidine-3-carboxylic acid], the inhibition at 10 µM was found to be 85%.

For `COc1ccc(-c2ccc(C(CCC(F)(F)F)Nc3ccc(C(=O)N4CCC[C@@H](C(=O)O)C4)cc3)c(C)c2)cc1` (stereo partly drawn) [Example 7, (3R)-1-(4-((4,4,4-trifluoro-1-(4′-methoxy-3-methylbiphenyl-4-yl)butyl)amino)benzoyl)piperidine-3-carboxylic acid], the inhibition at 10 µM was 91%. In the case of `Cc1cc(-c2ccc(C#N)cc2)ccc1C(CCC(F)(F)F)Nc1ccc(C(=O)N2CCC[C@@H](C(=O)O)C2)cc1` (stereo partly drawn) [Example 8, (3R)-1-(4-((1-(4′-cyano-3-methylbiphenyl-4-yl)-4,4,4-trifluorobutyl)amino)benzoyl)piperidine-3-carboxylic acid], the inhibition at 10 µM stood at 91%. Consider `Cc1cc(-c2ccc(C(F)(F)F)nc2)ccc1C(CCC(F)(F)F)Nc1ccc(C(=O)N2CCC[C@@H](C(=O)O)C2)cc1` (stereo partly drawn) [Example 14, (3R)-1-(4-((4,4,4-trifluoro-1-(2-methyl-4-(6-(trifluoromethyl)pyridin-3-yl)phenyl)butyl)amino)benzoyl)piperidine-3-carboxylic acid], for which the inhibition at 10 µM came out at 88%. Regarding `Cc1cc(-c2ccc(Cl)cc2)ccc1C(CCC(F)(F)F)Nc1ccc(C(=O)N2CCC[C@@H](C(=O)O)C2)cn1` (stereo partly drawn) [Example 15, (3R)-1-((6-((1-(4′-chloro-3-methylbiphenyl-4-yl)-4,4,4-trifluorobutyl)amino)pyridin-3-yl)carbonyl)piperidine-3-carboxylic acid], the inhibition at 10 µM came out at 92%. On to `Cc1cc(-c2ccc(Cl)cc2)ccc1C(Nc1ccc(C(=O)N2CCC[C@@H](C(=O)O)C2)cc1)C1CCCCC1` (stereo partly drawn) [Example 16, (3R)-1-(4-(((4′-chloro-3-methylbiphenyl-4-yl)(cyclohexyl)methyl)amino)benzoyl)piperidine-3-carboxylic acid], for which the inhibition at 10 µM was 93%. With `Cc1cc(-c2ccc(Cl)cc2)ccc1C(Nc1ccc(C(=O)N2CCC[C@@H](C(=O)O)C2)cn1)C1CCCCC1` (stereo partly drawn) [Example 17, (3R)-1-((6-(((4′-chloro-3-methylbiphenyl-4-yl)(cyclohexyl)methyl)amino)pyridin-3-yl)carbonyl)piperidine-3-carboxylic acid], the inhibition at 10 µM stood at 92%. For the compound `Cc1cc(C(CCC(F)(F)F)Nc2ccc(C(=O)N3CCC[C@@H](C(=O)O)C3)cc2)cc(C)c1-c1ccc(Cl)cc1` (stereo partly drawn) [Example 18, (3R)-1-(4-((1-(4′-chloro-2,6-dimethylbiphenyl-4-yl)-4,4,4-trifluorobutyl)amino)benzoyl)piperidine-3-carboxylic acid], the inhibition at 10 µM worked out at 86%. Consider `Cc1cc(-n2ccc(C(C)C)n2)ccc1C(CCC(F)(F)F)Nc1ccc(C(=O)N2CCC[C@@H](C(=O)O)C2)cc1` (stereo partly drawn) [Example 22, (3R)-1-(4-((4,4,4-trifluoro-1-(4-(3-isopropyl-1H-pyrazol-1-yl)-2-methylphenyl)butyl)amino)benzoyl)piperidine-3-carboxylic acid], for which the inhibition at 10 µM stood at 89%. As for `Cc1cc(-c2ncc(C(C)(C)C)o2)ccc1C(CCC(F)(F)F)Nc1ccc(C(=O)N2CCC[C@@H](C(=O)O)C2)cc1` (stereo partly drawn) [Example 23, (3R)-1-(4-((1-(4-(5-tert-butyl-1,3-oxazol-2-yl)-2-methylphenyl)-4,4,4-trifluorobutyl)amino)benzoyl)piperidine-3-carboxylic acid], the inhibition at 10 µM stood at 90%. To `O=C(O)[C@@H]1CCCN(C(=O)c2ccc(NC(c3ccc(-c4ccc(Cl)cc4)cc3)C3CCCCC3)cc2)C1` (stereo partly drawn) [Example 24, (3R)-1-(4-(((4′-chlorobiphenyl-4-yl)(cyclohexyl)methyl)amino)benzoyl)piperidine-3-carboxylic acid] belongs 84%.
